Legend:
[1] = human gut metagenome, 24 h, 2 µM
[2] = (§1) The drug is tested on Z-019 corresponding to rat gut metagenome with ENA study accession number: PRJEB37062 and ENA sample accession number: ERS12561818 for biotransformation under anaerobic condition. The drug concentrations were measured over 9 timepoints collected between 0 and 24 hours of incubation by liquid-chromatography-coupled mass spectrometry (LC–MS); conditions: 2 µM
[3] = human gut metagenome, 24 h, 2 µM; remark: listed apart in the source
[4] = as §1, with “on Z-003” for “on Z-019”, “to pig” for “to rat”, “number: ERS12561803” for “number: ERS12561818”; conditions: 2 µM
[5] = as §1, with “on Z-002” for “on Z-019”, “to rabbit” for “to rat”, “number: ERS12561802” for “number: ERS12561818”; conditions: 2 µM
[6] = human gut metagenome, 24 h, 2 µM; remark: listed apart in the source
[7] = human gut metagenome, 24 h, 2 µM; remark: listed apart in the source
[8] = as §1, with “on WLS-006” for “on Z-019”, “to human” for “to rat”, “number: ERS12561741” for “number: ERS12561818”; conditions: 2 µM
[9] = as §1, with “Z-014” for “Z-019”, “ERS12561814” for “ERS12561818”; conditions: 2 µM
[10] = human gut metagenome, 24 h, 2 µM; remark: listed apart in the source
[11] = as §1, with “on WLS-098” for “on Z-019”, “to human” for “to rat”, “number: ERS12561754” for “number: ERS12561818”; conditions: 2 µM
[12] = human gut metagenome, 24 h, 2 µM; remark: listed apart in the source
[13] = human gut metagenome, 24 h, 2 µM; remark: listed apart in the source
[14] = as §1, with “on Z-009” for “on Z-019”, “to pig” for “to rat”, “number: ERS12561809” for “number: ERS12561818”; conditions: 2 µM
[15] = human gut metagenome, 24 h, 2 µM; remark: listed apart in the source
[16] = human gut metagenome, 24 h, 2 µM; remark: listed apart in the source
[17] = human gut metagenome, 24 h, 2 µM; remark: listed apart in the source
[18] = human gut metagenome, 24 h, 2 µM; remark: listed apart in the source
[19] = human gut metagenome, 24 h, 2 µM; remark: listed apart in the source
[20] = human gut metagenome, 24 h, 2 µM; remark: listed apart in the source
Further: call rule not given here.

SMILES | Bacterial Biotransformation [1] | Bacterial Biotransformation [2] | Bacterial Biotransformation [3] | Bacterial Biotransformation [4] | Bacterial Biotransformation [5] | Bacterial Biotransformation [6] | Bacterial Biotransformation [7] | Bacterial Biotransformation [8] | Bacterial Biotransformation [9] | Bacterial Biotransformation [10] | Bacterial Biotransformation [11] | Bacterial Biotransformation [12] | Bacterial Biotransformation [13] | Bacterial Biotransformation [14] | Bacterial Biotransformation [15] | Bacterial Biotransformation [16] | Bacterial Biotransformation [17] | Bacterial Biotransformation [18] | Bacterial Biotransformation [19] | Bacterial Biotransformation [20]
Nc1c2c(nc3ccccc13)CCCC2 [TACRINE] | Compound NOT metabolized | Compound NOT metabolized | Compound metabolized | Compound NOT metabolized | Compound metabolized | Compound metabolized | Compound NOT metabolized | Compound NOT metabolized | Compound NOT metabolized | Compound NOT metabolized | Compound metabolized | Compound metabolized | Compound NOT metabolized | Compound NOT metabolized | Compound metabolized | Compound NOT metabolized | Compound NOT metabolized | Compound NOT metabolized | Compound NOT metabolized | Compound metabolized
CCC(=O)NCC[C@@H]1CCc2ccc3c(c21)CCO3 [RAMELTEON] | Compound metabolized | Compound NOT metabolized | Compound metabolized | Compound metabolized | Compound metabolized | Compound metabolized | Compound metabolized | Compound metabolized | Compound metabolized | Compound metabolized | Compound metabolized | Compound NOT metabolized | Compound metabolized | Compound metabolized | Compound metabolized | Compound metabolized | Compound metabolized | Compound NOT metabolized | Compound metabolized | Compound metabolized
CC(C)(Oc1ccc(CCNC(=O)c2ccc(Cl)cc2)cc1)C(=O)O [BEZAFIBRATE] | Compound metabolized | Compound NOT metabolized | Compound metabolized | Compound metabolized | Compound metabolized | Compound metabolized | Compound metabolized | Compound metabolized | Compound NOT metabolized | Compound NOT metabolized | Compound metabolized | Compound metabolized | Compound metabolized | Compound metabolized | Compound metabolized | Compound metabolized | Compound metabolized | Compound metabolized | Compound metabolized | Compound metabolized
CCN(CC)CCNC(=O)c1cc(Cl)c(N)cc1OC [METOCLOPRAMIDE] | Compound NOT metabolized | Compound NOT metabolized | Compound NOT metabolized | Compound NOT metabolized | Compound NOT metabolized | Compound NOT metabolized | Compound NOT metabolized | Compound NOT metabolized | Compound NOT metabolized | Compound NOT metabolized | Compound NOT metabolized | Compound NOT metabolized | Compound NOT metabolized | Compound NOT metabolized | Compound NOT metabolized | Compound NOT metabolized | Compound NOT metabolized | Compound NOT metabolized | Compound NOT metabolized | Compound metabolized
Cc1ccc(S(=O)(=O)NC(=O)NN2CCCCCC2)cc1 [TOLAZAMIDE] | Compound NOT metabolized | Compound NOT metabolized | Compound metabolized | Compound metabolized | Compound metabolized | Compound metabolized | Compound metabolized | Compound metabolized | Compound NOT metabolized | Compound NOT metabolized | Compound metabolized | Compound metabolized | Compound NOT metabolized | Compound metabolized | Compound metabolized | Compound NOT metabolized | Compound metabolized | Compound metabolized | Compound metabolized | Compound metabolized
CCCC1O[C@@H]2C[C@H]3[C@@H]4CCC5=CC(=O)C=C[C@]5(C)[C@H]4[C@@H](O)C[C@]3(C)[C@]2(C(=O)CO)O1 (stereo not given in full) [BUDESONIDE] | Compound metabolized | Compound NOT metabolized | Compound metabolized | Compound metabolized | Compound metabolized | Compound metabolized | Compound metabolized | Compound metabolized | Compound metabolized | Compound metabolized | Compound metabolized | Compound metabolized | Compound metabolized | Compound metabolized | Compound metabolized | Compound metabolized | Compound metabolized | Compound metabolized | Compound metabolized | Compound metabolized
CC(CN(C)C)CN1c2ccccc2CCc2ccccc21.O=C(O)/C=C\C(=O)O (stereo not given) [TRIMIPRAMINE MALEATE] | Compound NOT metabolized | Compound NOT metabolized | Compound metabolized | Compound metabolized | Compound NOT metabolized | Compound metabolized | Compound metabolized | Compound metabolized | Compound NOT metabolized | Compound NOT metabolized | Compound metabolized | Compound NOT metabolized | Compound metabolized | Compound NOT metabolized | Compound metabolized | Compound metabolized | Compound metabolized | Compound NOT metabolized | Compound metabolized | Compound metabolized

Source: ChEMBL document CHEMBL5724914, “Linking interpersonal differences in gut microbiota composition and drug biotransformation activity” (2024)
